Results published in patent US11384121B2, “Creation of peptide-based anti-tumor agent” (National University Corporation Hokkaido University, priority 2018, dated 2022).

Tests used:
[1] = system: MIA PaCa-2 cell line transplanted; assay: Tumor-cell-transplanted animal model assay 1, size of transplanted tumor, MIA PaCa-2; type: in vivo, BALB/c nude mice; settings: MIA PaCa-2 (FIG. 2-1)
Method: (§1) Anti-asialo GM1 (rabbit) (Wako Pure Chemical Industries, Ltd.) was intraperitoneally administered to BALB/c nude mice, and the mice were grown at room temperature for 2 hours. To the back of each BALB/c nude mouse, 2×10^6 test cells were subcutaneously injected for transplantation. Compound 11 or compound 12 in a dose of 50 ng or 500 ng or in a dose of 40 ng or 400 ng was intraperitoneally administered to each mouse on each day, from the day following the date of transplantation for mice with the SW620 cell line transplanted, from the day 1 week after the date of transplantation for mice with the MIA PaCa-2 cell line transplanted, and the growth of a tumor mass in each transplantation site was observed. No compound was administered to a control group, and echinomycin in a dose of 40 ng or 400 ng was intraperitoneally administered to each mouse in groups with administration of echinomycin on each day.
(§2) Each of the control group, groups with administration of echinomycin, groups with administration of compound 11, and groups with administration of compound 12 was n=5.

[2] = Tumor-cell-transplanted animal model assay 2, body weight variation; type: in vivo, BALB/c nude mice; settings: MIA PaCa-2 transplanted mice
Method: Anti-asialo GM1 (rabbit) (Wako Pure Chemical Industries, Ltd.) was intraperitoneally administered to BALB/c nude mice, and the mice were grown at room temperature for 2 hours. To the back of each BALB/c nude mouse, 2×10^6 cells of the MIA PaCa-2 cell line were subcutaneously injected for transplantation. Compound 11 or compound 12 in a dose of 500 ng was intraperitoneally administered to each mouse on each day from the day following the date of transplantation, and body weight was measured on each day (n=5 for each group). No compound was administered to a control group, and echinomycin in a dose of 400 ng was intraperitoneally administered to each mouse in a group with administration of echinomycin on each day, and body weight was measured at the date of slaughter (n=5 for each group).

activated caspase-3 = assay: Detection of activated caspase-3 (Western blotting); type: cell-based; settings: 10 ng/mL, 48 hours; SW620; actin as endogenous control
Method: The SW620 cell line aliquoted into a 6-well plate at 2.0×10^3 cells/well was cultured for 24 hours, and compound 12 was then added to the culture solution to reach a final concentration of 10 ng/mL to initiate incubation, and the plate was taken out after 48 hours.
Proteins were collected by using a commercially available protein collection kit (mammalian cell extraction kit (BioVision, Inc.)) in accordance with a protocol provided by the manufacturer, and activated caspase-3 was quantified through Western blotting with a specific antibody to cleaved caspase-3 (Cell Signaling Technology, Inc.). Actin was used as an endogenous control. No compound was added for a control group, and echinomycin was added for a group with administration of echinomycin so that the final concentration of echinomycin reached 10 ng/mL, and the above-described operations were performed.
(§3) Each of the control group, group with administration of echinomycin, and group with administration of compound 12 was n=4.

HIF-1a = settings: Non Patent Literature 2; cited from earlier work
[3] = Non Patent Literature 1; clinical development abandoned; cited from earlier work
MIA PaCa-2 cell line = assay: SRB assay, pancreatic cancer cell (MIA PaCa-2 cell) line; type: cell-based
Method: (§4) Used for cells were an SW620 cell line (ATCC), which was a colorectal cancer cell line, and an MIA PaCa-2 cell line (ATCC) and a Suit2 cell line (Health Science Research Resources Bank), which were a pancreatic cancer cell line.
(§5) Culture of the MIA PaCa-2 cell line and the Suit2 cell line was performed by using a DMEM with 10% FBS, 2 mM L-glutamine, 50 U/mL penicillin, and 50 μg/mL streptomycin. Culture of the SW620 cell line was performed by using RPMI1640 with 10% FBS, 2 mM L-glutamine, 50 U/mL penicillin, and 50 μg/mL streptomycin.
(§6) Test cells aliquoted into a 96-well plate at 1.0×10^4 cells/well were cultured for 24 hours, and compound 11 or compound 12 was then added to the culture solution to reach a final concentration of 1 ng/mL, 10 ng/mL, 100 ng/mL, or 1000 ng/mL to initiate incubation, and the plate was taken out after 24 hours, 48 hours, 72 hours, and 96 hours (n=5 for each case).
(§7) To each well of the plate taken out, 100 μL of 10% trichloroacetic acid (TCA) was added, the plate was left to stand at 4° C. for 1 hour, and washed four times with pure water. […] Cell density after each incubation time was determined by measuring OD at 510 nm for stained cells lysed in 10 mM Tris buffer solution. […]

Suit2 cell line = assay: SRB assay, pancreatic cancer cell (SuiT-2 cell) line; type: cell-based; settings: 100 ng/mL or more
Method: as §4, §5, §6, §7

SW620 cell line [4] = assay: SRB assay, colorectal cancer cell (SW620 cell) line; type: cell-based
Method: as §4, §5, §6, §7

[5] = system: SW620 cell line transplanted; assay: Tumor-cell-transplanted animal model assay 1, size of transplanted tumor, SW620; type: in vivo, BALB/c nude mice
Method: as §1, §2

SW620 cell line [6] = assay: Cell death inducibility, TUNEL method; type: cell-based; settings: 10 ng/mL, 48 hours
Method: The SW620 cell line aliquoted into a 4-well glass chamber slide at 5.0×10^4 cells/well was cultured for 24 hours, and compound 12 was then added to the culture solution to reach a final concentration of 10 ng/mL to initiate incubation, and the slide was taken out after 48 hours.
By using a commercially available cell death detection kit utilizing a TUNEL (TdT-mediated dUTP nick-end labeling) method (In Situ Cell Death Detection Kit and TMR red (Roche Diagnostic)) in accordance with a protocol provided by the manufacturer, TUNEL-stained cells (i.e., cells that underwent cell death) were detected and counted. No compound was added for a control group, and echinomycin was added for a group with administration of echinomycin so that the final concentration of echinomycin reached 10 ng/mL, and the above-described operations were performed.
as §3

[7] = 500 ng intraperitoneally each day

## CC(C)[C@H]1C(=O)OC[C@@H](NC(=O)c2cnc3ccccc3n2)C(=O)N[C@@H](C)C(=O)N(C)[C@H]2CSC[C@@H](C(=O)N1C)N(C)C(=O)[C@H](C)NC(=O)[C@H](NC(=O)c1cnc3ccccc3n1)COC(=O)[C@H](C(C)C)N(C)C2=O [compound 11]
[1]; [7]
  size of transplanted tumor: Reduction in the size of transplanted tumor
[1]; 500 ng versus 400 ng of echinomycin
  tumor size reduction compared with echinomycin: comparable with that provided by administration of 400 ng of echinomycin
[2]; [7]
  body weight on day 28 of administration: Large reduction in body weight was not found

## CS[C@H]1SC[C@H]2C(=O)N(C)[C@@H](C(C)C)C(=O)OC[C@@H](NC(=O)c3cnc4ccccc4n3)C(=O)N[C@@H](C)C(=O)N(C)[C@@H]1C(=O)N(C)[C@@H](C(C)C)C(=O)OC[C@@H](NC(=O)c1cnc3ccccc3n1)C(=O)N[C@@H](C)C(=O)N2C [echinomycin, reference compound]
Activated caspase-3
  amount of activated caspase-3, relative to control group (100±45): 362±176
[2]; 400 ng intraperitoneally each day
  body weight on day 28 of administration: Large reduction in body weight was not found
HIF-1a
  HIF-1a inhibitory activity: HIF-1a inhibitory activity
[3]
  toxicity in phase 2 clinical trial: toxicity

## CC(C)[C@H]1C(=O)OC[C@@H](NC(=O)c2nc3ccccc3cc2O)C(=O)N[C@@H](C)C(=O)N(C)[C@H]2CSC[C@@H](C(=O)N1C)N(C)C(=O)[C@H](C)NC(=O)[C@H](NC(=O)c1nc3ccccc3cc1O)COC(=O)[C@H](C(C)C)N(C)C2=O [compound 12]
MIA PaCa-2 cell line; 10 ng/mL
  growth-suppressing activity at low concentration compared with echinomycin: higher than that of echinomycin
MIA PaCa-2 cell line; 100 ng/mL or more
  absorbance (cell density, OD at 510 nm) versus control; activity to suppress the growth of cancer cells: significant difference in absorbance
Suit2 cell line
  absorbance (cell density, OD at 510 nm) versus control; activity to suppress the growth of cancer cells: significant difference in absorbance
SW620 cell line [4]; 10 ng/mL
  growth-suppressing activity at low concentration compared with echinomycin: higher than that of echinomycin
SW620 cell line [4]; 100 ng/mL or more
  absorbance (cell density, OD at 510 nm) versus control; activity to suppress the growth of cancer cells: significant difference in absorbance
[1]; any of the loadings, intraperitoneally each day
  size of transplanted tumor: reduction in the size of transplanted tumor
[5]; 40 ng versus 400 ng of echinomycin, cell line not given
  tumor size reduction compared with echinomycin: comparable with that of administration of 400 ng of echinomycin
[5]; any of the loadings, intraperitoneally each day, SW620 (FIG. 2-2)
  size of transplanted tumor: reduction in the size of transplanted tumor
SW620 cell line [6]
  number of cells that underwent cell death (TUNEL-stained cells): significantly larger than those for the control group and the group with administration of echinomycin
Activated caspase-3
  amount of activated caspase-3, relative to control group (100±45): 1107±273
[2]; [7]
  body weight on day 28 of administration: Large reduction in body weight was not found
